According to ChEMBL document CHEMBL5696442, “Discovery of type II inhibitors of TGFβ-activated kinase 1 (TAK1) and mitogen-activated protein kinase kinase kinase kinase 2 (MAP4K2)” (J Med Chem, 2015):

Columns and labels:
[1] = target: T1, Myotonin-protein kinase (Homo sapiens) (UniProt Q09013); assay: Inhibition of DMPK1 K2 labeling site in human Huh-7 cells at 10 uM by KiNativ Profiling analysis relative to control; assay type: cell-based
T1 sequence (whole entry): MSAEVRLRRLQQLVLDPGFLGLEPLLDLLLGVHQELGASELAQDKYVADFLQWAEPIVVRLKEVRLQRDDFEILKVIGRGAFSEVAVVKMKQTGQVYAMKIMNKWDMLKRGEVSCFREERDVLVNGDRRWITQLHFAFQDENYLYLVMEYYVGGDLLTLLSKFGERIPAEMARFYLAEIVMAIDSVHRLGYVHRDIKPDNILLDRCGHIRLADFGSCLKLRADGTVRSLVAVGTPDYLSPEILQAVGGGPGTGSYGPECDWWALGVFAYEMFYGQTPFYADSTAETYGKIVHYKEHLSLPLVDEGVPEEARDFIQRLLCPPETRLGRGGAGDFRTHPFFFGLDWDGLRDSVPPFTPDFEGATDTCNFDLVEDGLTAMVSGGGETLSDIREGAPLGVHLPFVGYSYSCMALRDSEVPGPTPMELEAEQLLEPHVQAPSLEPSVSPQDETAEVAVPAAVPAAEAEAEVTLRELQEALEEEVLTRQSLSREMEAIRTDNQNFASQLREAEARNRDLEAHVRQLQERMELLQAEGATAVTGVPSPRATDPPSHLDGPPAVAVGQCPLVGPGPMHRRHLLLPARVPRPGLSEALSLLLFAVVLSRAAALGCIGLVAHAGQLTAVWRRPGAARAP

[2] = target: T2, Mitogen-activated protein kinase kinase kinase 15 (Homo sapiens) (UniProt Q6ZN16); assay: Inhibition of MAP3K15 (unknown origin) at 1 uM by Ambit Kinomescan binding assay relative to control; values are per cent of control
T2 sequence (whole entry): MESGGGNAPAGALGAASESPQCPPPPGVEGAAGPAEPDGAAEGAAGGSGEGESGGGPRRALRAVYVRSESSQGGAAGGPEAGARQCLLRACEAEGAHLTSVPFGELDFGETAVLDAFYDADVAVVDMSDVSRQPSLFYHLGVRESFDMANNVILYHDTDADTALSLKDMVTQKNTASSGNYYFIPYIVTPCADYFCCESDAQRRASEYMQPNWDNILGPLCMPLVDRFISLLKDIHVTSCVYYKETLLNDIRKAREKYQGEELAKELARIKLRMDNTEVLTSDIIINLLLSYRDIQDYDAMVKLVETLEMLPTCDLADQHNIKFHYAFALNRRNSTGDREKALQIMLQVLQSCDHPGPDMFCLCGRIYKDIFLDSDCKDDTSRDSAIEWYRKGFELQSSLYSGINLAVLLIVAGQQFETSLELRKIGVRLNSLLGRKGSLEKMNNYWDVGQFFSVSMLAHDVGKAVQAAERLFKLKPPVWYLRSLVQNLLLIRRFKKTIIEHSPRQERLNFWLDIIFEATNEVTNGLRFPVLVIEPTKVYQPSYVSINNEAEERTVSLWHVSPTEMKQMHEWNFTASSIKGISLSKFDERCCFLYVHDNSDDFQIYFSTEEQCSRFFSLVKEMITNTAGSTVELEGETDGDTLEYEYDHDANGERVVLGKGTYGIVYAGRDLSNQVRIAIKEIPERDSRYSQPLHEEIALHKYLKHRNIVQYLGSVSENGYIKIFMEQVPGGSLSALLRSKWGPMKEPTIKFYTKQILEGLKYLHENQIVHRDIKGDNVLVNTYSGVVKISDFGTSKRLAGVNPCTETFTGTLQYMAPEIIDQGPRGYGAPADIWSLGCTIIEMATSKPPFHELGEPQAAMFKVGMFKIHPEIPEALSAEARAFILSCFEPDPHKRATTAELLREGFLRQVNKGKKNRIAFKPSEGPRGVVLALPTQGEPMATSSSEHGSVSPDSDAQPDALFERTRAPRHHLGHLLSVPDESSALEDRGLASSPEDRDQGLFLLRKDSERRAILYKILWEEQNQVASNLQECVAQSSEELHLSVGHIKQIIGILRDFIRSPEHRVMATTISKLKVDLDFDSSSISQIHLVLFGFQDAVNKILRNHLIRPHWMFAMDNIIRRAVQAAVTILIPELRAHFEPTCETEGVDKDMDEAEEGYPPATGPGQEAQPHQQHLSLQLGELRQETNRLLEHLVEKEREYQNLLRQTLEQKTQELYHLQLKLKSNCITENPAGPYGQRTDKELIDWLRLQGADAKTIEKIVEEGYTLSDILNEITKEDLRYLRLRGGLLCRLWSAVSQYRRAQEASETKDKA

[3] = target: Fibroblast growth factor receptor 3 (Homo sapiens) (UniProt P22607); assay: Inhibition of FGFR3 (unknown origin) at 1 uM by Ambit Kinomescan binding assay relative to control; values are per cent of control
Sequence of Fibroblast growth factor receptor 3 (Homo sapiens) (P22607 23-806 limits assumed): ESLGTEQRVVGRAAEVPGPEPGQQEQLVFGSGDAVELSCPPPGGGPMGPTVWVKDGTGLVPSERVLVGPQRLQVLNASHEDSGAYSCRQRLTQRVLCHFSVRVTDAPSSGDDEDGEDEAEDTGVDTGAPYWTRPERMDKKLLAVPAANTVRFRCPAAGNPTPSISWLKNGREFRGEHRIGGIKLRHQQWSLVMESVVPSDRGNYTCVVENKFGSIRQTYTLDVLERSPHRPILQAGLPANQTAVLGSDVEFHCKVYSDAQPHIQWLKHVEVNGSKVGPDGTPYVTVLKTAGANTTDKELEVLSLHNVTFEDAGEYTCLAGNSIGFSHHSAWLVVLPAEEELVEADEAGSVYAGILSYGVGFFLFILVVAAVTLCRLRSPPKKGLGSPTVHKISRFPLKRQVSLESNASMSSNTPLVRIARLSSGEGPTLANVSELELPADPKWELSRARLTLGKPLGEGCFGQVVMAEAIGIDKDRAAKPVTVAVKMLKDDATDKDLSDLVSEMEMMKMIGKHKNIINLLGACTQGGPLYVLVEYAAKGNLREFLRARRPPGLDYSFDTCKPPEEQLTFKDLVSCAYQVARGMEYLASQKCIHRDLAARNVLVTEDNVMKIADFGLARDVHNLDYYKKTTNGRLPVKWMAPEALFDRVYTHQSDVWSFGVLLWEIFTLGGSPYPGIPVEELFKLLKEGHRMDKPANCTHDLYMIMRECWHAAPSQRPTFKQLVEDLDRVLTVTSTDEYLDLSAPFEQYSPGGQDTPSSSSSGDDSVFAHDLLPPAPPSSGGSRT

[4] = target: Serine/threonine-protein kinase PLK3 (Homo sapiens) (UniProt Q9H4B4); assay: Inhibition of PLK3 (unknown origin) at 1 uM by Ambit Kinomescan binding assay relative to control; values are per cent of control
Sequence of Serine/threonine-protein kinase PLK3 (Homo sapiens) (Q9H4B4 whole entry, looked up): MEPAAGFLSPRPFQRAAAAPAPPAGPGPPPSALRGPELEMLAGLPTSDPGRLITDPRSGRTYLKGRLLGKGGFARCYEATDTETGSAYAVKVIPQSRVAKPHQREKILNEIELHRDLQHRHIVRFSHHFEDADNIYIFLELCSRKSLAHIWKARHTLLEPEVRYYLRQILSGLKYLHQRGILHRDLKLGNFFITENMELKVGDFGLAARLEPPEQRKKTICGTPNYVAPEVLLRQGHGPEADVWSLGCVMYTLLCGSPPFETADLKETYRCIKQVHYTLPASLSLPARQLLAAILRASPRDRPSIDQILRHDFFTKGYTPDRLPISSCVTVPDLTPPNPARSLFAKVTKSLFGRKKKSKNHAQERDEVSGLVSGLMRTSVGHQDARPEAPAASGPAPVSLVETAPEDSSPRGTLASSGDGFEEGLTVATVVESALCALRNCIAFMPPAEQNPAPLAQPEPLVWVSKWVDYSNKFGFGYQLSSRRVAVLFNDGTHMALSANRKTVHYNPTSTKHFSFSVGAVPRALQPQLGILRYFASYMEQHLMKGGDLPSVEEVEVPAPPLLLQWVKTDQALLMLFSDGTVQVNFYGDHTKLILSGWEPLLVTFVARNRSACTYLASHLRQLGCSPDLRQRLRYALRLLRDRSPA

[5] = target: Serine/threonine-protein kinase VRK2 (Homo sapiens) (UniProt Q86Y07); assay: Inhibition of VRK2 Lys2 labeling site in human A-375 cells at 0.05 uM by KiNativ Profiling analysis relative to control; assay type: cell-based
Sequence of Serine/threonine-protein kinase VRK2 (Homo sapiens) (Q86Y07 whole entry): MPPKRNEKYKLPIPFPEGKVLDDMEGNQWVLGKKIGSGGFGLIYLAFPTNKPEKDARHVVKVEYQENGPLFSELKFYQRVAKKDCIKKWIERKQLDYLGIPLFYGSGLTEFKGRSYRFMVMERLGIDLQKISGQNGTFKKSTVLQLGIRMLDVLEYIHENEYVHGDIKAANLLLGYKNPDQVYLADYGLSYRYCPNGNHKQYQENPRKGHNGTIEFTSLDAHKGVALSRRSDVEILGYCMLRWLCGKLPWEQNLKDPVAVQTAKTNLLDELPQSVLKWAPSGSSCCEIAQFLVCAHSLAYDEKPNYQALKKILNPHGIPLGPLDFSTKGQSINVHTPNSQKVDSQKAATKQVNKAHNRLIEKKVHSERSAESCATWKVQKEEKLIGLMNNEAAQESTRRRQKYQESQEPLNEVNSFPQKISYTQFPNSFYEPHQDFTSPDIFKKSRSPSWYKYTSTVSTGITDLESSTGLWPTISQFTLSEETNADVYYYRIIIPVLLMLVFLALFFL

SMILES	inhibition [1] [%]	residual activity [2] [%]	residual activity [3] [%]	residual activity [4] [%]	inhibition [5] [%]
CCN1CCN(Cc2ccc(NC(=O)c3ccc(C)c(Oc4ccnc5[nH]ccc45)c3)cc2C(F)(F)F)CC1	2.8				
CCN1CCN(Cc2ccc(NC(=O)c3ccc(C)c(/C=C/c4cnc5[nH]ccc5c4OC)c3)cc2C(F)(F)F)CC1		100	13	100	28.7
